From patent US11065257B2, “Substituted pyrazoloazepin-4-ones and their use as phosphodiesterase inhibitors” (LEO Pharma A/S, priority 2016, dated 2021)

molecular target: T1, human PDE4D catalytic domain (Homo sapiens, UniProt Q08499); assay: PDE4 Assay; format: biochemical; details: human PDE4D catalytic domain (S380-L740), TR-FRET with FAM-cAMP; expressed as a range of IC50; read-out: PDE4 Potency Range
T1 construct: UniProt no; Q08499 [S380-L740]
Summary of the method: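 Catalytic domain (S380-L740) was incubated with unlabelled cAMP plus FAM-cAMP and titrated compound, then stopped with Tb-donor nanoparticles binding AMP phospho groups. Generated AMP was read by time-resolved FRET; IC50 was reported as 50% inhibition of substrate cleavage relative to controls, expressed as nM ranges.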

T1 sequence (Q08499 380-740): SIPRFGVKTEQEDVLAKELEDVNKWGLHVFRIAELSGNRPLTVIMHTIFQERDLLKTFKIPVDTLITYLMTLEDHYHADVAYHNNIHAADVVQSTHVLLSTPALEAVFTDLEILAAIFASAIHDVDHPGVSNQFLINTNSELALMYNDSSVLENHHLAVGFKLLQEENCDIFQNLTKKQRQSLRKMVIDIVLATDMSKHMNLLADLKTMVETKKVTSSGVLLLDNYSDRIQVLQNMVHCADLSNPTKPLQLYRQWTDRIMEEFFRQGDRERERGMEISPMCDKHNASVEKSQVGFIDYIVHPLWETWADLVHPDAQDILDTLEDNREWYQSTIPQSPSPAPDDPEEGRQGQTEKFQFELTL

`CCc1nn(CCCOC(=O)c2sc(C)nc2C)c2c1C(=O)NCC1(CCOCC1)C2` [Example 95, 3-(3-ethyl-4-oxo-spiro[6,8-dihydro-5H-pyrazolo[4,3-c]azepine-7,4′-tetrahydropyran]-1-yl)propyl 2,4-dimethylthiazole-5-carboxylate] and `CCc1nn(CCCOC(=O)c2sc(OC)nc2C)c2c1C(=O)NCC1(CCOCC1)C2` [Example 100, 3-(3-ethyl-4-oxo-spiro[6,8-dihydro-5H-pyrazolo[4,3-c]azepine-7,4′-tetrahydropyran]-1-yl)propyl 2-methoxy-4-methyl-thiazole-5-carboxylate] fall in the same range of IC50: 100 to 500 nM for the first, 100 to 500 nM for the second.

First: CCc1nn(CCCOC(=O)c2cc[nH]n2)c2c1C(=O)NCC1(CCOCC1)C2 [Example 18, 3-(3-ethyl-4-oxo-spiro[6,8-dihydro-5H-pyrazolo[4,3-c]azepine-7,4′-tetrahydropyran]-1-yl)propyl 1H-pyrazole-3-carboxylate]
Second: CCc1nn(CCCOC(=O)c2nc[nH]n2)c2c1C(=O)NCC1(CCOCC1)C2 [Example 26, 3-(3-ethyl-4-oxo-spiro[6,8-dihydro-5H-pyrazolo[4,3-c]azepine-7,4′-tetrahydropyran]-1-yl)propyl 1H-1,2,4-triazole-3-carboxylate]
The IC50 of the first is lower: 100 to 500 nM for the first, > 500 nM for the second.

`CCc1nn(CCCOC(=O)C2CCN(C(C)=O)CC2)c2c1C(=O)NCC1(CCOCC1)C2` [Example 99, 3-(3-ethyl-4-oxo-spiro[6,8-dihydro-5H-pyrazolo[4,3-c]azepine-7,4′-tetrahydropyran]-1-yl)propyl 1-acetylpiperidine-4-carboxylate] and `CCc1nn(CCCOC(=O)C2CCCN(C(C)=O)C2)c2c1C(=O)NCC1(CCOCC1)C2` (stereo not drawn) [Example 98, 3-(3-ethyl-4-oxo-spiro[6,8-dihydro-5H-pyrazolo[4,3-c]azepine-7,4′-tetrahydropyran]-1-yl)propyl 1-acetylpiperidine-3-carboxylate] cannot be ordered by IC50: > 500 nM for the first, > 500 nM for the second.

First: CCc1nn(CCCOC(=O)c2cc(C)no2)c2c1C(=O)NCC1(CCOCC1)C2 [Example 43, 3-(3-ethyl-4-oxo-spiro[6,8-dihydro-5H-pyrazolo[4,3-c]azepine-7,4′-tetrahydropyran]-1-yl)propyl 3-methylisoxazole-5-carboxylate]
Second: CCc1nn(CCOC(=O)Cc2cc(C)no2)c2c1C(=O)NCC1(CCOCC1)C2 [Example 12, 2-(3-ethyl-4-oxo-spiro[6,8-dihydro-5H-pyrazolo[4,3-c]azepine-7,4′-tetrahydropyran]-1-yl)ethyl 2-(3-methylisoxazol-5-yl)acetate]
The IC50 of the first is lower: 100 to 500 nM for the first, > 500 nM for the second. The first is the more potent here.

`CCc1nn(CCCOC(=O)C2CCCSC2)c2c1C(=O)NCC1(CCOCC1)C2` (stereo not drawn) [Example 84, 3-(3-ethyl-4-oxo-spiro[6,8-dihydro-5H-pyrazolo[4,3-c]azepine-7,4′-tetrahydropyran]-1-yl)propyl tetrahydrothiopyran-3-carboxylate] and `CCc1nn(CCCOC(=O)C2CCSC2)c2c1C(=O)NCC1(CCOCC1)C2` (stereo not drawn) [Example 60, 3-(3-ethyl-4-oxo-spiro[6,8-dihydro-5H-pyrazolo[4,3-c]azepine-7,4′-tetrahydropyran]-1-yl)propyl tetrahydrothiophene-3-carboxylate] fall in the same range of IC50: 100 to 500 nM for the first, 100 to 500 nM for the second.

First: CCc1nn(CCCOC(=O)C2CCS(=O)(=O)CC2)c2c1C(=O)NCC1(CCOCC1)C2 [Example 103, 3-(3-ethyl-4-oxo-spiro[6,8-dihydro-5H-pyrazolo[4,3-c]azepine-7,4′-tetrahydropyran]-1-yl)propyl 1,1-dioxothiane-4-carboxylate]
Second: CCc1nn(CCCOC(=O)c2coc(C3CC3)n2)c2c1C(=O)NCC1(CCOCC1)C2 [Example 89, 3-(3-ethyl-4-oxo-spiro[6,8-dihydro-5H-pyrazolo[4,3-c]azepine-7,4′-tetrahydropyran]-1-yl)propyl 2-cyclopropyloxazole-4-carboxylate]
The IC50 of the first is higher: > 500 nM for the first, 100 to 500 nM for the second.

First: CCc1nn(CCCOC(=O)c2ccnn2C)c2c1C(=O)NCC1(CCOCC1)C2 [Example 35, 3-(3-ethyl-4-oxo-spiro[6,8-dihydro-5H-pyrazolo[4,3-c]azepine-7,4′-tetrahydropyran]-1-yl)propyl 2-methylpyrazole-3-carboxylate]
Second: CCc1nn(CCCOC(=O)c2cn(C)cn2)c2c1C(=O)NCC1(CCOCC1)C2 [Example 39, 3-(3-ethyl-4-oxo-spiro[6,8-dihydro-5H-pyrazolo[4,3-c]azepine-7,4′-tetrahydropyran]-1-yl)propyl 1-methylimidazole-4-carboxylate]
The IC50 of the first is lower: 100 to 500 nM for the first, > 500 nM for the second.

Compared with `CCc1noc(C)c1C(=O)OCCCn1nc(CC)c2c1CC1(CCOCC1)CNC2=O` [Example 92, 3-(3-ethyl-4-oxo-spiro[6,8-dihydro-5H-pyrazolo[4,3-c]azepine-7,4′-tetrahydropyran]-1-yl)propyl 3-ethyl-5-methyl-isoxazole-4-carboxylate], `CCc1noc(CC)c1C(=O)OCCCn1nc(CC)c2c1CC1(CCOCC1)CNC2=O` [Example 97, 3-(3-ethyl-4-oxo-spiro[6,8-dihydro-5H-pyrazolo[4,3-c]azepine-7,4′-tetrahydropyran]-1-yl)propyl 3,5-diethylisoxazole-4-carboxylate] is lower in IC50: > 500 nM for the first, 100 to 500 nM for the second. The second is the more potent here.

`CCc1nn(CCCOC(=O)c2nc(C)oc2C)c2c1C(=O)NCC1(CCOCC1)C2` [Example 76, 3-(3-ethyl-4-oxo-spiro[6,8-dihydro-5H-pyrazolo[4,3-c]azepine-7,4′-tetrahydropyran]-1-yl)propyl 2,5-dimethyloxazole-4-carboxylate] and `CCc1nn(CCCOC(=O)c2coc(C)n2)c2c1C(=O)NCC1(CCOCC1)C2` [Example 46, 3-(3-ethyl-4-oxo-spiro[6,8-dihydro-5H-pyrazolo[4,3-c]azepine-7,4′-tetrahydropyran]-1-yl)propyl 2-methyloxazole-4-carboxylate] cannot be ordered by IC50: > 500 nM for the first, > 500 nM for the second.

First: CCc1nn(CC(C)(C)COC(=O)C2CCOC2)c2c1C(=O)NCC1(CCOCC1)C2 (stereo not drawn) [Example 110, [3-(3-ethyl-4-oxo-spiro[6,8-dihydro-5H-pyrazolo[4,3-c]azepine-7,4′-tetrahydropyran]-1-yl)-2,2-dimethyl-propyl] tetrahydrofuran-3-carboxylate]
Second: CCc1nn(CCCOC(=O)c2cocn2)c2c1C(=O)NCC1(CCOCC1)C2 [Example 23, 3-(3-ethyl-4-oxo-spiro[6,8-dihydro-5H-pyrazolo[4,3-c]azepine-7,4′-tetrahydropyran]-1-yl)propyl oxazole-4-carboxylate]
The IC50 of the first is lower: 100 to 500 nM for the first, > 500 nM for the second.

`CCc1nn(CCCOC(=O)c2cnc(C)s2)c2c1C(=O)NCC1(CCOCC1)C2` [Example 82, 3-(3-ethyl-4-oxo-spiro[6,8-dihydro-5H-pyrazolo[4,3-c]azepine-7,4′-tetrahydropyran]-1-yl)propyl 2-methylthiazole-5-carboxylate] gave an IC50 of 100 to 500 nM.
